Results on 2 molecules are retold here after publication PMC12164691 (Molecular Pharmacology, 2021).

In assay [1] the target is T1, TAS2R39 (Homo sapiens, UniProt P59534).
T1 sequence (P59534 1-338): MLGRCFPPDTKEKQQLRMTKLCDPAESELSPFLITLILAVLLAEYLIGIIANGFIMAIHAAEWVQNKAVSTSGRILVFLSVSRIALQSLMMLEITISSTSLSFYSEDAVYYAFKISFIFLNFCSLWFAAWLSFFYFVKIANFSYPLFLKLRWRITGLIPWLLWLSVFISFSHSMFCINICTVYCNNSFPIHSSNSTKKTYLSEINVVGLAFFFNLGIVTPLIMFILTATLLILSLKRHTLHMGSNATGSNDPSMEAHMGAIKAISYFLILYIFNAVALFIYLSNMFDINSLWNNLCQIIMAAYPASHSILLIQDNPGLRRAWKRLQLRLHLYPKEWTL
The assay is described as follows: Calcium mobilization in HEK293 cells expressing TAS2R39 and Gα16-gust44; antagonism of […] TAF (also of […] denatonium, IC50 […]). The class given is cell-based.

Another assay deals with TAS2R8 (Homo sapiens, UniProt Q9NYW2).
Chain of TAS2R8 (Q9NYW2 whole entry): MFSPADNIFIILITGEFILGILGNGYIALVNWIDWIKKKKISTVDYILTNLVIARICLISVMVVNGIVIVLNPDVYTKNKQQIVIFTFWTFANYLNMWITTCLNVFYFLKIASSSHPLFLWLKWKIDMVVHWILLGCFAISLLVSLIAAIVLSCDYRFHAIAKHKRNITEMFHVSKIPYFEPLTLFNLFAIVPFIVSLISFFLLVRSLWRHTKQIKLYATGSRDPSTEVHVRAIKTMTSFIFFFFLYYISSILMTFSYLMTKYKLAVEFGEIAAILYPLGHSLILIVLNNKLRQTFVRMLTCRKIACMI
In a further assay the target is TAS2R14 (Homo sapiens, UniProt Q9NYV8).
Chain of TAS2R14 (Q9NYV8 whole entry): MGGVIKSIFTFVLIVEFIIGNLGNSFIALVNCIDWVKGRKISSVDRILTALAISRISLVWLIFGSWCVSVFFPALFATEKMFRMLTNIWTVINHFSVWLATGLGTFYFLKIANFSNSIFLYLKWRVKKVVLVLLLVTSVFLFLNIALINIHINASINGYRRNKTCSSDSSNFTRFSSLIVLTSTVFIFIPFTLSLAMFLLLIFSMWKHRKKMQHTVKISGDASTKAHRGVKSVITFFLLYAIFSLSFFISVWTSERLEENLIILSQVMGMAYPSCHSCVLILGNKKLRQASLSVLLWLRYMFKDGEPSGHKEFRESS
For assay [2], the target named is T1, TAS2R39.

Structures are written as SMILES. pIC50: −log10 of the molar value.

For the molecule `Cc1ccc2oc(-c3ccccc3)cc(=O)c2c1` [6-MF, 6-methylflavone], at TAS2R39 [1], the negative-log IC50 (pIC50) (in general, the IC50 on a negative log10 scale, so that one unit is a factor of ten) is 4.66.
Consider `CC(C)OC(=O)[C@H](C)N[P@](=O)(CO[C@H](C)Cn1cnc2c(N)ncnc21)Oc1ccccc1` [TAF, tenofovir alafenamide], for which the “Calcium mobilization in HEK293 cells expressing TAS2R8 and Gα16-gust44; concentr” value on TAS2R8 was “cells expressing TAS2R8 and TAS2R14 showed small but significant responses to TAF”. Moreover, at TAS2R14, the “Calcium mobilization in HEK293 cells expressing TAS2R14 and Gα16-gust44; concent” value is “cells expressing TAS2R8 and TAS2R14 showed small but significant responses to TAF”. The “Calcium mobilization in HEK293 cells expressing TAS2R39 and Gα16-gust44; concent” value on TAS2R39 [2] was “TAF activates TAS2R1, TAS2R8, TAS2R14, and TAS2R39 concentration-dependently”.
